The text below walks through data of US20020049157A1, “Use of proteasome inhibitors for treating cancer, inflammation, autoimmune disease, graft rejection and septic shock” (priority 1998, published 2002).

The subject of one assay is Jurkat cells. Briefly: Proliferation of Jurkat cells. As to conditions: data not shown. It is filed as cell-based.
The next assay has as its target 20S proteasome (Rattus norvegicus, UniProt P28075). Briefly: 20S proteasome chymotrypsin-like activity, positive control for LAC. It is filed as biochemical.
In another assay the test system is CDK4. Briefly: Immunoprecipitation kinase assay, CDK4. The assay is classed as cell-based, human. As to conditions: PHA-activated T cells; LAC 10 μM added once at 0 h; examined at 16 h and 40 h. The protocol:
(§1) Tonsillar T cells were activated with PHA (2 μg/ml) for a period as indicated in each graph. LAC (10 μM) was added once at 0 h. The cells were harvested at 16 h, 24 h, or 40 h as indicated. An equal amount of lysate protein ([…]) was precipitated with rabbit anti-CDK4, anti-CDK2 or anti-Cyclin E antisera (2.5 μg Ab/sample). The immune complexes were assayed for their kinase activities using histone H1 as a substrate. (A) CDK4 kinase activity. (B) CDK2 kinase activity. (C) Cyclin E-associated CDK activity. The membrane in (C) was subsequently hybridized with anti-Cyclin E (1 μg/ml) followed by ^125I-protein A for the evaluation of the protein level of Cyclin E.
This was in agreement with the critical role of CDK4 in the early […].
Lymphocytes were lysed by a lysis buffer as used in the immunoblotting (Chen et al., 1996, supra), and cleared lysates were quantitated for their protein content. For immunoprecipitation, 50 μl of rabbit antisera against CDK2, CDK4 or Cyclin E were added to the lysates equivalent to 20 or 40 μg protein depending on the experiment. After 2 h incubation at 4° C., the immune complexes were recovered by protein A-conjugated Sepharose (Pharmacia Biotech, Montreal, Quebec, Canada). […] The proteins were then transferred to PVDF membranes and the signals were detected by autoradiography.

For the next assay, the system named is Bcl-xL. Kind of assay: Immunoblotting of Bcl-xL in Bcl-xL transfected Namalwa cells. It is filed as cell-based, human. To be noted: lactacystin 6 μM; 6 h. As to the method: Jurkat cells, wild type Namalwa cells and Bcl-xL transfected Namalwa cells were treated with medium (lanes 1), staurosporine (0.3 μM, lanes 2) and lactacystin (6 μM, lanes 3) for 6 H. The proteins from the mitochondrial fraction of these cells were analyzed by immunoblotting and the amount of Bik, Bcl-xL, Bax, and Bak evaluated. The same membranes were used sequentially and probed with different antibodies against these factors. A nonspecific band recognized by a monoclonal antibody against cytochrome […] (COX) was used as control for even sample loading in the lanes.
On the technique in general: Immunoblotting shows a protein as a band on a membrane.

Another assay deals with Tonsillar B cells. Kind of assay: B cell proliferation induced with SAC plus IL-2 (3H-thymidine uptake). The assay is classed as cell-based, human. The protocol:
Lymphocytes were stimulated with various mitogens as indicated, and LAC at different concentrations was added at the beginning of the cultures. The cells were pulsed with 3H-thymidine between 48 h and 64 h. Samples were in triplicates. All the experiments were performed at least three times and similar results were obtained. Representative results are shown.
D: Tonsillar B cells stimulated with SAC (1:15,000 dilution) and IL-2 (100 μ/ml).
The role of proteasome in T cell activation and proliferation was first examined in PBMC, using the proteasome-specific inhibitor LAC. The PBMC were activated with various stimulants. LAC was added to the cells in the beginning of the culture (0 h) along with the stimulants. ^3H-thymidine uptake between 48 h and 64 h of 64 h cultures was used as a parameter for cell proliferation. […] Rather, it likely affects certain downstream events governing a more general process(es) in lymphocyte activation and proliferation.
Peripheral blood mononuclear cells (PBMC) and tonsillar T cells were prepared as described before (Luo et al., 1992, Transplantation 53:1071; Luo et al., 1993, Clin. & Exp. Immunol. 94:371). The cells were cultured in RPMI 1640 supplemented with 10% FCS, L-glutamine and antibiotics. ^3H-thymidine uptake was carried out as described previously (Luo et al., 1992, supra; Luo et al., 1993, supra).

For assay [1], the system named is human peripheral blood mononuclear cells. Kind of assay: Aggregate formation of PHA-stimulated PBMC. It is filed as cell-based. To be noted: 2 μg/ml PHA plus 10 μM lactacystin; 24 h. From the text:
(§2) Cell-cell interaction is essential in antigen presentation and in T cell's help to T and B cells. The adhesion molecules are necessary to establish the cell-cell interaction. Blocking the adhesion molecules ICAM-1 and LFA-1 is known to inhibit immune responses and to suppress graft rejection. […] Therefore, inhibition of the proteasome activity will be a useful way to control undesirable immune responses during graft rejection, autoimmune diseases, and inflammation.

The subject of a further assay is CDK2. Kind of assay: Immunoprecipitation kinase assay, CDK2. The assay is classed as cell-based, human. To be noted: PHA-activated T cells; LAC 10 μM added once at 0 h; at 16 h and more so at 40 h. As to the method: as §1
Therefore, the proteasome activity during the early activation stage (0 h-16 h) is essential for the activation of the kinase at the G1 phase and early S phase. The unchanged CDK4 activity in the LAC-treated cells at 40 h served as an internal control for the repressed CDK2 activity and indicating the latter was not due to the viability problem.
Lymphocytes were lysed by a lysis buffer as used in the immunoblotting (Chen et al., 1996, supra), and cleared lysates were quantitated for their protein content. […] The proteins were then transferred to PVDF membranes and the signals were detected by autoradiography.

For the next assay, the system named is ICAM-1. Kind of assay: ICAM-1 expression on 2C TCR transgenic lymph node T cells (flow cytometry). It is filed as cell-based, mouse. As to conditions: Con A plus 10 μM lactacystin; 24 h and 48 h. The protocol:
After 24 h and 48 h, the cells were examined for ICAM-1 expression by flow cytometry, using FITC-anti-ICAM-1/1B2-PE. Monoclonal Ab 1B2 recognize a clonotypic determinant on the TCR of the transgenic T cells which are largely CD8 positive (>75%).
as §2

Procedure for 20S proteasome: Human PBMC were cultured in the absence or presence of 2 μg/ml PHA or 10 nM RAPA for 16 h-70 h as indicated. The cells were then harvested, and the chymotrypsin-like activity of whole cells lysates was assayed in the absence or presence of 20 μM proteasome inhibitor LAC. The data are presented as arbitrary units of fluorescence intensity per 20 μg lysate protein. The experiments were repeated three times and a representative one is shown. Samples are in duplicate and the mean±SD is shown. (A) Total chymotrypsin-like activity in the lysate of PBMC. (B) Lactacystin-inhibitable chymotrypsin-like activity in the lysate of 70 h PBMC. […] LAC was always added to the lysates during the proteinase assay 15 min before the addition of the substrate. The solid bars represent the activity in the presence of LAC. The net proteasome activities are calculated as the total activity minus the remaining activity after the LAC addition.
PBMC were cultured with or without PHA (2 μg/ml) and RAPA (10 nM). After 16 h-70 h, the cells were harvested and sonicated in 300 μl PBS on ice for 40 sec. Twenty micrograms of protein per sample from the cleared lysates were supplemented to 100 μl with 0.1 M Tris buffer (pH 8.2). […] The samples were then diluted to 2 ml with 0.1 M Tris pH8.2, and measured for their fluorescent intensity by a PTI fluorometer (Photo Technology International, South Brunswick, N.J.). […]

With `CC(=O)N[C@@H](CSC(=O)[C@]1([C@@H](O)C(C)C)NC(=O)[C@H](C)[C@@H]1O)C(=O)O` [LAC, lactacystin], the “proliferation of Jurkat cells” value with Jurkat cells is on record as “potently inhibited”. Also, 10 µM produced 90% inhibition at 20S proteasome (LAC at 10 μM). In addition, the “inhibitory effect on the 20S proteasome activity” value against 20S proteasome (LAC increased to 20 μM) is on record as “did not further increase the inhibitory effect”. In addition, the CDK4 kinase activity result in the assay on CDK4 is listed as “did not affect the CDK4 activity”. The “Bcl-xL level in transfected Namalwa cells” value in the assay with Bcl-xL is “accumulation of Bcl-xL”. Also, the “inhibition of B cell proliferation (3H-thymidine uptake)” value in the assay with Tonsillar B cells (LAC added at 0 h) was “potently inhibited”. For the same compound, the “extent of inhibition of B cell proliferation” value with Tonsillar B cells (LAC at 5 μM) is “near-to-maximal inhibition”. The aggregate formation result in assay [1] was “effectively block the aggregate formation”. Moreover, in the assay with CDK2, the CDK2 kinase activity entry is “significantly inhibited”. Further, in the assay with ICAM-1, the “upregulation of ICAM-1 on CD8 positive T cells” value is given as “effectively block the upregulation of ICAM-1”.
